Data published in PubChem BioAssay (NCI).
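Five concentrations, 48 hours, 96-well plates. The concentration for full growth arrest is given as TGI.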

Experiments:
Assay in all cases: NCI tumour cell line growth inhibition, 48 h
[1] = tested on: HS 578T breast
[2] = tested on: NCI/ADR-RES ovarian
[3] = tested on: DU-145 prostate
[4] = tested on: OVCAR-4 ovarian
[5] = tested on: SK-MEL-5 melanoma
[6] = tested on: K-562 leukemia
[7] = tested on: HCT-116 colon
[8] = tested on: RPMI-8226 leukemia
[9] = tested on: CAKI-1 renal
[10] = tested on: SF-539 CNS
[11] = tested on: IGROV1 ovarian
[12] = tested on: U251 CNS
[13] = tested on: MALME-3M melanoma
[14] = tested on: HOP-62 NSCLC
[15] = tested on: UO-31 renal
[16] = tested on: M14 melanoma
[17] = tested on: MDA-N
[18] = tested on: PC-3 prostate
[19] = tested on: MDA-MB-435

## CC1C(=O)CC[C@@]2(C)C(=O)CCCC12O (stereo not given in full)
[1]
  TGI: > 100 µM
[2]
  TGI: > 100 µM
[3]
  TGI: > 100 µM
[4]
  TGI: > 100 µM
[5]
  TGI: > 100 µM
[6]
  TGI: > 100 µM
[7]
  TGI: > 100 µM
[8]
  TGI: > 100 µM
[9]
  TGI: > 100 µM
[10]
  TGI: > 100 µM
[11]
  TGI: > 100 µM
[12]
  TGI: > 100 µM
[13]
  TGI: > 100 µM
[14]
  TGI: > 100 µM
[15]
  TGI: > 100 µM
[16]
  TGI: > 100 µM
[17]
  TGI: > 100 µM
[18]
  TGI: > 100 µM
[19]
  TGI: > 100 µM

## CC(=O)O[C@H]1CC[C@@]2(C)C(=CC[C@H]3[C@@H]4C/C(=C\c5ccncc5)[C@H](OC(C)=O)[C@@]4(C)CC[C@@H]32)C1
[1]
  TGI: > 100 µM
[2]
  TGI: 27.3 µM
[3]
  TGI: 29.4 µM
[4]
  TGI: 18.2 µM
[5]
  TGI: 18.9 µM
[6]
  TGI: 42.4 µM
[7]
  TGI: 24.1 µM
[8]
  TGI: 7.6 µM
[9]
  TGI: 25.7 µM
[10]
  TGI: 15.6 µM
[11]
  TGI: 27.7 µM
[12]
  TGI: 23.1 µM
[13]
  TGI: 21.7 µM
[14]
  TGI: 17.7 µM
[15]
  TGI: 20.7 µM
[16]
  TGI: 30.2 µM
[17]
  TGI: 46.8 µM
[18]
  TGI: 46.8 µM
[19]
  TGI: 36.5 µM

## CCOC(=O)NC(C(C(=O)OCC)C(=O)OCC)(C(F)(F)F)C(F)(F)F
[1]
  TGI: > 100 µM
[2]
  TGI: > 100 µM
[3]
  TGI: > 100 µM
[4]
  TGI: > 100 µM
[5]
  TGI: > 100 µM
[6]
  TGI: > 100 µM
[7]
  TGI: > 100 µM
[8]
  TGI: > 100 µM
[9]
  TGI: > 100 µM
[10]
  TGI: > 100 µM
[11]
  TGI: > 100 µM
[12]
  TGI: > 100 µM
[13]
  TGI: > 100 µM
[14]
  TGI: > 100 µM
[15]
  TGI: > 100 µM
[16]
  TGI: > 100 µM
[17]
  TGI: > 100 µM
[18]
  TGI: > 100 µM
[19]
  TGI: > 100 µM

## CSc1n[nH]c2n[nH]c(C)c12
[1]
  TGI: > 100 µM
[2]
  TGI: > 100 µM
[3]
  TGI: > 100 µM
[4]
  TGI: > 100 µM
[5]
  TGI: > 100 µM
[6]
  TGI: > 100 µM
[7]
  TGI: > 100 µM
[8]
  TGI: > 100 µM
[9]
  TGI: > 100 µM
[10]
  TGI: > 100 µM
[11]
  TGI: > 100 µM
[12]
  TGI: > 100 µM
[13]
  TGI: > 100 µM
[14]
  TGI: > 100 µM
[15]
  TGI: > 100 µM
[16]
  TGI: > 100 µM
[17]
  TGI: > 100 µM
[18]
  TGI: > 100 µM
[19]
  TGI: > 100 µM

## O=C1C(Cl)C(c2cccc(Br)c2)N1c1c(O)c(Cl)cc(Br)c1Cl (stereo not given)
[1]
  TGI: 24 µM
[2]
  TGI: 89.8 µM
[3]
  TGI: 32.9 µM
[4]
  TGI: 24.7 µM
[5]
  TGI: 27.2 µM
[6]
  TGI: 37.1 µM
[7]
  TGI: 27.6 µM
[8]
  TGI: 37.9 µM
[9]
  TGI: 81.1 µM
[10]
  TGI: 32.6 µM
[11]
  TGI: 10.7 µM
[12]
  TGI: 25.3 µM
[13]
  TGI: 55.3 µM
[14]
  TGI: 32.4 µM
[15]
  TGI: 40 µM
[16]
  TGI: 27.1 µM
[17]
  TGI: 53.3 µM
[18]
  TGI: 75.1 µM
[19]
  TGI: 31.1 µM
